This passage reports TGI results from PubChem BioAssay (NCI).

Structures are written as SMILES.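 96-well plates; 48 h exposure; 5 concentrations. Endpoints by linear interpolation between flanking doses. Not reached: highest tested concentration assigned. TGI: total growth inhibition.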

What all share (assay): DTP human tumour cell line panel, 48 h
For experiment [1], the system named is BT-549 breast.
Experiment [2] concerns CCRF-CEM leukemia.
Experiment [3] concerns DU-145 prostate.
The subject of experiment [4] is HCT-116 colon.
Experiment [5] deals with LOX IMVI melanoma.
For experiment [6], the system named is M14 melanoma.
For experiment [7], the system named is MDA-MB-231 breast.
For experiment [8], the system named is MDA-MB-435.
Experiment [9] concerns MOLT-4 leukemia.
For experiment [10], the system named is NCI-H226 lung.
The subject of experiment [11] is NCI-H522 lung.
Experiment [12] has as its system OVCAR-8 ovarian.
Experiment [13] concerns RPMI-8226 leukemia.
Experiment [14] deals with SF-268 CNS.
The subject of experiment [15] is SF-295 CNS.
The subject of experiment [16] is SK-OV-3 ovarian.
Experiment [17] relates to SNB-75 CNS.
For experiment [18], the system named is T-47D breast.

In the case of `O=c1[nH]c2ccc(CC(=S)N3CCN(c4ccccc4)CC3)cc2o1`, the TGI in experiment [1], in experiment [2], in [3], in [4], in [5] and in experiment [6] was greater than 100 µM in each case. In addition, the TGI in experiment [7], in experiment [8], in experiment [9], in experiment [10], in [11] and in [12] was greater than 100 µM throughout. In addition, the TGI was greater than 100 µM in experiment [13]; greater than 100 µM in experiment [14]; greater than 100 µM in experiment [15]; greater than 100 µM in experiment [16]; greater than 94.7 µM in experiment [17]; greater than 100 µM in experiment [18].
For `Clc1ccc2c(NCCNc3ccnc4cc(Cl)ccc34)ccnc2c1`, the TGI in experiment [1] came to 36.8 µM; in experiment [2], 46.2 µM; in experiment [3], 48.2 µM; in experiment [4], 33.1 µM; in [5], 34.1 µM; in experiment [6], 31.2 µM. For the same compound, the TGI in experiment [7] was 32.2 µM; in [8], 32 µM; in [9] it was 35.3 µM; in experiment [10], 62.5 µM; in experiment [11] it was 35.2 µM; in experiment [12] it was 43.1 µM. For the same compound, the TGI in experiment [13] was 42 µM; in experiment [14], 70.6 µM; in [15], 26.2 µM; in [16], 31.5 µM; in [17], 50.3 µM; in [18] it was 43.8 µM.
